Results: patent US20160060260A1, “BROMODOMAIN INHIBITORS FOR TREATING DISEASE” (Board of Regents, The University of Texas System, priority 2014, published 2016)

The compounds below were run against T1, Recombinant human His-tagged Trim24-PHD-bromodomain (Homo sapiens, UniProt O15164) (assay: Trim24 AlphaScreen Assay). Settings: 5 nM Trim24 protein, 15 nM biotinylated H3K23ac (1-33aa) peptide.
T1 construct: Recombinant human His-tagged Trim24-PHD-bromodomain (produced in-house); made in house
T1 sequence (O15164 824-1006 limits assumed): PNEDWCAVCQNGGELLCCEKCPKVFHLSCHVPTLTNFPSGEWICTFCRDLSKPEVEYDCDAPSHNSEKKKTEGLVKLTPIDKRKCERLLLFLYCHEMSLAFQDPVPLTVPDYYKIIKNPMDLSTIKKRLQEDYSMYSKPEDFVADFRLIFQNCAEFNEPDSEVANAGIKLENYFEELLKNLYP
Type: binding
Method in brief: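 His-tagged Trim24-PHD-bromodomain, biotinylated H3K23ac (1-33aa) peptide and compound incubated 1 h at room temperature in 50 mM Hepes pH 7.5, 100 mM NaCl, 0.12 mM Triton X-100.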
`CCCOc1cc(OCCCCCCN)cc(Oc2cc3c(cc2NS(=O)(=O)c2ccccn2)n(C)c(=O)n3C)c1` [Example 187, N-(6-(3-((6-aminohexyl)oxy)-5-propoxyphenoxy)-1,3-dimethyl-2-oxo-2,3-dihydro-1H-benzo[d]imidazol-5-yl)pyridine-2-sulfonamide] was tested, and the IC50 was 10 to 100 nM.
`CCCOc1cc(OCCCCCCN(C)C)cc(Oc2cc3c(cc2NS(=O)(=O)c2cn(C)cn2)n(C)c(=O)n3C)c1` [Example 188, N-(6-(3-((6-(dimethylamino)hexyl)oxy)-5-propoxyphenoxy)-1,3-dimethyl-2-oxo-2,3-dihydro-1H-benzo[d]imidazol-5-yl)-1-methyl-1H-imidazole-4-sulfonamide] showed an IC50 of 10 to 100 nM.
`CCCOc1cc(OCCCCCCN)cc(Oc2cc3c(cc2NS(=O)(=O)c2cnn(C)c2C)n(C)c(=O)n3C)c1` [Example 189, N-(6-(3-((6-aminohexyl)oxy)-5-propoxyphenoxy)-1,3-dimethyl-2-oxo-2,3-dihydro-1H-benzo[d]imidazol-5-yl)-1,5-dimethyl-1H-pyrazole-4-sulfonamide] showed an IC50 of 1 to 10 nM.
With `CCCOc1cc(OCCCCCCN)cc(Oc2cc3c(cc2NS(=O)(=O)c2cccc(C#N)c2)n(C)c(=O)n3C)c1` [Example 190, N-(6-(3-((6-aminohexyl)oxy)-5-propoxyphenoxy)-1,3-dimethyl-2-oxo-2,3-dihydro-1H-benzo[d]imidazol-5-yl)-3-cyanobenzenesulfonamide] the IC50 was 10 to 100 nM.
`CCCOc1cc(OCCCCCCN)cc(Oc2cc3c(cc2NS(=O)(=O)c2cccc(C(=O)OC)c2)n(C)c(=O)n3C)c1` [Example 191, methyl 3-(N-(6-(3-((6-aminohexyl)oxy)-5-propoxyphenoxy)-1,3-dimethyl-2-oxo-2,3-dihydro-1H-benzo[d]imidazol-5-yl)sulfamoyl)benzoate] was tested, and the IC50 was 10 to 100 nM.
Work on `COC(=O)c1cccc(S(=O)(=O)Nc2cc3c(cc2Oc2cccc(OCC(F)(F)F)c2)n(C)c(=O)n3C)c1` [Example 192, methyl 3-(N-(1,3-dimethyl-2-oxo-6-(3-(2,2,2-trifluoroethoxy)phenoxy)-2,3-dihydro-1H-benzo[d]imidazol-5-yl)sulfamoyl)benzoate] yielded an IC50 of 10 to 100 nM.
For `C=CCOc1cccc(S(=O)(=O)Nc2cc3c(cc2Oc2cccc(OCC(F)(F)F)c2)n(C)c(=O)n3C)c1` [Example 193, 3-(allyloxy)-N-(1,3-dimethyl-2-oxo-6-(3-(2,2,2-trifluoroethoxy)phenoxy)-2,3-dihydro-1H-benzo[d]imidazol-5-yl)benzenesulfonamide], the IC50 was 100 to 1000 nM.
In the case of `COc1ccc(S(=O)(=O)Nc2cc3c(cc2Oc2cc(OCCCCCCN)cc(OCC(F)(F)F)c2)n(C)c(=O)n3C)cc1OC` [Example 194, N-(6-(3-((6-aminohexyl)oxy)-5-(2,2,2-trifluoroethoxy)phenoxy)-1,3-dimethyl-2-oxo-2,3-dihydro-1H-benzo[d]imidazol-5-yl)-3,4-dimethoxybenzenesulfonamide], the IC50 is reported as 10 to 100 nM.
`COCCCOc1cc(OCC(F)(F)F)cc(Oc2cc3c(cc2NS(=O)(=O)c2ccc(OC)c(OC)c2)n(C)c(=O)n3C)c1` [Example 195] showed an IC50 of 10 to 100 nM.
`CCCOc1cc(OCCCCN)cc(Oc2cc3c(cc2NS(=O)(=O)c2ccc(OC)c(OC)c2)n(C)c(=O)n3C)c1` [Example 196, N-(6-(3-(4-aminobutoxy)-5-propoxyphenoxy)-1,3-dimethyl-2-oxo-2,3-dihydro-1H-benzo[d]imidazol-5-yl)-3,4-dimethoxybenzenesulfonamide] was tested, and the IC50 was 1 to 10 nM.
`CCCOc1cc(OCCCCCN)cc(Oc2cc3c(cc2NS(=O)(=O)c2cn(C)cn2)n(C)c(=O)n3C)c1` [Example 197, N-(6-(3-((5-aminopentyl)oxy)-5-propoxyphenoxy)-1,3-dimethyl-2-oxo-2,3-dihydro-1H-benzo[d]imidazol-5-yl)-1-methyl-1H-imidazole-4-sulfonamide] showed an IC50 of 10 to 100 nM.
Compound `CCCOc1cc(OCCCCN)cc(Oc2cc3c(cc2NS(=O)(=O)c2ccccn2)n(C)c(=O)n3C)c1` [Example 198, N-(6-(3-(4-aminobutoxy)-5-propoxyphenoxy)-1,3-dimethyl-2-oxo-2,3-dihydro-1H-benzo[d]imidazol-5-yl)pyridine-2-sulfonamide] has an IC50 of 10 to 100 nM.
`CCCOc1cc(OCCCCN)cc(Oc2cc3c(cc2NS(=O)(=O)c2cnn(C)c2C)n(C)c(=O)n3C)c1` [Example 199, N-(6-(3-(4-aminobutoxy)-5-propoxyphenoxy)-1,3-dimethyl-2-oxo-2,3-dihydro-1H-benzo[d]imidazol-5-yl)-1,5-dimethyl-1H-pyrazole-4-sulfonamide] showed an IC50 of 10 to 100 nM.
With `Cc1c(S(=O)(=O)Nc2cc3c(cc2Oc2cc(OCCCCCCN)cc(OCC(F)(F)F)c2)n(C)c(=O)n3C)cnn1C` [Example 200, N-(6-(3-((6-aminohexyl)oxy)-5-(2,2,2-trifluoroethoxy)phenoxy)-1,3-dimethyl-2-oxo-2,3-dihydro-1H-benzo[d]imidazol-5-yl)-1,5-dimethyl-1H-pyrazole-4-sulfonamide] the IC50 was 1 to 10 nM.
In the case of `Cn1c(=O)n(C)c2cc(Oc3cc(OCCCCCCN)cc(OCC(F)(F)F)c3)c(NS(=O)(=O)c3cccnc3)cc21` [Example 201, N-(6-(3-((6-aminohexyl)oxy)-5-(2,2,2-trifluoroethoxy)phenoxy)-1,3-dimethyl-2-oxo-2,3-dihydro-1H-benzo[d]imidazol-5-yl)pyridine-3-sulfonamide], the IC50 is reported as 1 to 10 nM.
With `Cn1cnc(S(=O)(=O)Nc2cc3c(cc2Oc2cc(OCCCCCCN)cc(OCC(F)(F)F)c2)n(C)c(=O)n3C)c1` [Example 202, N-(6-(3-((6-aminohexyl)oxy)-5-(2,2,2-trifluoroethoxy)phenoxy)-1,3-dimethyl-2-oxo-2,3-dihydro-1H-benzo[d]imidazol-5-yl)-1-methyl-1H-imidazole-4-sulfonamide] the IC50 was 1 to 10 nM.
With `COc1ccc(S(=O)(=O)Nc2cc3c(cc2Oc2cc(OCCCCCCN)cc(OCC(F)(F)F)c2)n(C)c(=O)n3C)cn1` [Example 203, N-(6-(3-((6-aminohexyl)oxy)-5-(2,2,2-trifluoroethoxy)phenoxy)-1,3-dimethyl-2-oxo-2,3-dihydro-1H-benzo[d]imidazol-5-yl)-6-methoxypyridine-3-sulfonamide] the IC50 was 10 to 100 nM.
`COCCCOc1cc(OCC(F)(F)F)cc(Oc2cc3c(cc2NS(=O)(=O)c2cnn(C)c2C)n(C)c(=O)n3C)c1` [Example 204, N-(6-(3-(3-methoxypropoxy)-5-(2,2,2-trifluoroethoxy)phenoxy)-1,3-dimethyl-2-oxo-2,3-dihydro-1H-benzo[d]imidazol-5-yl)-1,5-dimethyl-1H-pyrazole-4-sulfonamide] was tested, and the IC50 was 10 to 100 nM.
Work on `COc1ccc(S(=O)(=O)Nc2cc3c(cc2Oc2cc(OCCCCCCN(C)C)cc(OCC(F)(F)F)c2)n(C)c(=O)n3C)cc1OC` [Example 205, N-(6-(3-((6-(dimethylamino)hexyl)oxy)-5-(2,2,2-trifluoroethoxy)phenoxy)-1,3-dimethyl-2-oxo-2,3-dihydro-1H-benzo[d]imidazol-5-yl)-3,4-dimethoxybenzenesulfonamide] yielded an IC50 of 1 to 10 nM.
With `CCCOc1cc(OCCCOC)cc(Oc2cc3c(cc2NS(=O)(=O)c2cn(C)nc2C)n(C)c(=O)n3C)c1` [Example 206, N-(6-(3-(3-methoxypropoxy)-5-propoxyphenoxy)-1,3-dimethyl-2-oxo-2,3-dihydro-1H-benzo[d]imidazol-5-yl)-1,3-dimethyl-1H-pyrazole-4-sulfonamide] the IC50 was 10 to 100 nM.
For `CCCOc1cc(OCCCOC)cc(Oc2cc3c(cc2NS(=O)(=O)c2cnn(CC)c2)n(C)c(=O)n3C)c1` [Example 207, 1-ethyl-N-(6-(3-(3-methoxypropoxy)-5-propoxyphenoxy)-1,3-dimethyl-2-oxo-2,3-dihydro-1H-benzo[d]imidazol-5-yl)-1H-pyrazole-4-sulfonamide], the IC50 was 10 to 100 nM.
`CCCOc1cccc(Oc2cc3c(cc2NS(=O)(=O)c2cccc(C(=O)O)c2)n(C)c(=O)n3C)c1` [Example 208, 3-(N-(1,3-dimethyl-2-oxo-6-(3-propoxyphenxoy)-2,3-dihydro-1H-benzo[d]imidazol-5-yl)sulfamoyl)benzoic acid] gave an IC50 of 10 to 100 nM.
Compound `Cc1c(S(=O)(=O)Nc2cc3c(cc2Oc2cc(OCCCCN)cc(OCC(F)(F)F)c2)n(C)c(=O)n3C)cnn1C` [Example 209, N-(6-(3-(4-aminobutoxy)-5-(2,2,2-trifluoroethoxy)phenoxy)-1,3-dimethyl-2-oxo-2,3-dihydro-1H-benzo[d]imidazol-5-yl)-1,5-dimethyl-1H-pyrazole-4-sulfonamide] has an IC50 of 1 to 10 nM.
With `COc1ccc(S(=O)(=O)Nc2cc3c(cc2Oc2cc(OCCCCN)cc(OCC(F)(F)F)c2)n(C)c(=O)n3C)cc1OC` [Example 210, N-(6-(3-(4-aminobutoxy)-5-(2,2,2-trifluoroerthoxy)phenoxy)-1,3-dimethyl-2-oxo-2,3-dihydro-1H-benzo[d]imidazol-5-yl)-3,4-dimethoxybenzenesulfonamide] the IC50 was 10 to 100 nM.
`COc1ccc(S(=O)(=O)Nc2cc3c(cc2Oc2cc(OCCCCN(C)C)cc(OCC(F)(F)F)c2)n(C)c(=O)n3C)cc1OC` [Example 211, N-(6-(3-(4-(dimethylamino)butoxy)-5-(2,2,2-trifluoroethoxy)phenoxy)-1,3-dimethyl-2-oxo-2,3-dihydro-1H-benzo[d]imidazol-5-yl)-3,4-dimethoxybenzenesulfonamide] was tested, and the IC50 was 1 to 10 nM.
For `Cc1c(S(=O)(=O)Nc2cc3c(cc2Oc2cc(OCCCCN(C)C)cc(OCC(F)(F)F)c2)n(C)c(=O)n3C)cnn1C` [Example 212, N-(6-(3-(4-(dimethylamino)butoxy)-5-(2,2,2-trifluoroethoxy)phenoxy)-1,3-dimethyl-2-oxo-2,3-dihydro-1H-benzo[d]imidazol-5-yl)-1,5-dimethyl-1H-pyrazole-4-sulfonamide], the IC50 was 1 to 10 nM.
For `CCCOc1cc(OCCCCN)cc(Oc2cc3c(cc2NS(=O)(=O)c2cn(C)c(C)n2)n(C)c(=O)n3C)c1` [Example 214], the IC50 was 10 to 100 nM.
